{"source": "ChEMBL document CHEMBL1122691", "about": "“Development of an affinity ligand for purification of alpha 2-adrenoceptors from human platelet membranes” (J Med Chem, 1984)", "key": {"[1]": {"biological_target": "T1, Adrenergic receptor alpha-2 (Homo sapiens, UniProt P08913+P18825+P18089)", "T1 sequence (P08913 whole entry)": "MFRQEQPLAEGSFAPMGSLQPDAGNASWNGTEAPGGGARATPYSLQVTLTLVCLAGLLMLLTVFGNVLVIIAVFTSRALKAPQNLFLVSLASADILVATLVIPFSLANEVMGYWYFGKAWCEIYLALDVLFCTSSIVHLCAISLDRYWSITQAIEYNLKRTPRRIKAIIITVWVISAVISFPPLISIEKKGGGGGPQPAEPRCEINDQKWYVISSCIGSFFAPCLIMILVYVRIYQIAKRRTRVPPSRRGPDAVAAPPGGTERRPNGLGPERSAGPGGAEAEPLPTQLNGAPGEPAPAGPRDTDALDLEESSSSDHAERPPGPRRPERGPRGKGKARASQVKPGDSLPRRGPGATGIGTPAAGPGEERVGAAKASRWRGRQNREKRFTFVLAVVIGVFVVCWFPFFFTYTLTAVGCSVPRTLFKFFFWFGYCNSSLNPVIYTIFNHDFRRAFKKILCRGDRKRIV", "T1 sequence (P18825 whole entry)": "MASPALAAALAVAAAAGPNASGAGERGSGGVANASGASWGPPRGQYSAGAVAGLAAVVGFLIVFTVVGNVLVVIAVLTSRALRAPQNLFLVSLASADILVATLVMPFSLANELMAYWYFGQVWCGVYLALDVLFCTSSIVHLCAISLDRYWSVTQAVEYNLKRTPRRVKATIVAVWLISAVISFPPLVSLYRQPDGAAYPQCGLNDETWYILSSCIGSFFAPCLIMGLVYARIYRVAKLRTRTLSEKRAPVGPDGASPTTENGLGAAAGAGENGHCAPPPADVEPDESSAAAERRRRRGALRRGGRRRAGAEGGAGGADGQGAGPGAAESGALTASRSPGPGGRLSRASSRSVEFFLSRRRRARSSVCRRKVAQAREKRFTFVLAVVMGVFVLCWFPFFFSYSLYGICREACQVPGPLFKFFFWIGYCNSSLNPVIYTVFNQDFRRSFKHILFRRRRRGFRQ", "T1 sequence (P18089 whole entry)": "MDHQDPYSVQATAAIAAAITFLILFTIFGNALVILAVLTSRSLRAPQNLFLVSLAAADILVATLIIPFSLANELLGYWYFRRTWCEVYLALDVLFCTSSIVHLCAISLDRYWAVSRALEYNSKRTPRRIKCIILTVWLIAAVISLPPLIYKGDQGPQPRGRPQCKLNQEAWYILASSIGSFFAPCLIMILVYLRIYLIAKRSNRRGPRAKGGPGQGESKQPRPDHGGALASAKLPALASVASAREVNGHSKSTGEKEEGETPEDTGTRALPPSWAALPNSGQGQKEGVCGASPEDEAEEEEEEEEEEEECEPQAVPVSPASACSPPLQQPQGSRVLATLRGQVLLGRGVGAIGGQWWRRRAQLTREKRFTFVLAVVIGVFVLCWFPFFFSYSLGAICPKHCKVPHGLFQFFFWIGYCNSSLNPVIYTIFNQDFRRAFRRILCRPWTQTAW", "assay_type": "cell membranes"}, "[2]": {"test_system": "Adrenergic receptor alpha-2 (Cavia porcellus)", "conditions": "Cardiac atrium"}, "[3]": {"biological_target": "T1, Adrenergic receptor alpha-2", "test": "Binding affinity against alpha-2-adrenergic receptor using 10 nM [3H]yohimbine in preparations in human platelet membranes from three separate experiments using 10 inhibitor concentrations", "assay_type": "cell membranes"}, "[4]": {"biological_target": "T1, Adrenergic receptor alpha-2", "test": "Binding affinity against alpha-2-adrenergic receptor using 10 nM [3H]yohimbine in human platelet membranes from four to five separate experiments using 12 inhibitor concentrations", "assay_type": "cell membranes"}}, "data": [{"smiles": "C=CCN1CCc2cccc(Cl)c2CC1", "values": [{"measurement": "Ki", "setting": "[1]", "value": 0.0061, "unit": "µM"}, {"measurement": "K beta", "setting": "[2]", "value": 60, "unit": "nM"}]}, {"smiles": "C=CCOc1cccc2c1CCN(C)CC2", "values": [{"measurement": "Ki", "setting": "[1]", "value": 0.338, "unit": "µM"}, {"measurement": "K beta", "setting": "[2]", "value": 206, "unit": "nM"}]}, {"smiles": "C=CCOc1ccc2c(c1)CCNCC2", "values": [{"measurement": "Ki", "setting": "[3]", "value": 0.232, "unit": "µM"}]}, {"smiles": "C=CCOc1ccc(Cl)c2c1CCN(C)CC2", "values": [{"measurement": "Ki", "setting": "[4]", "value": 0.048, "unit": "µM"}, {"measurement": "K beta", "setting": "[2]", "value": 150, "unit": "nM"}]}]}
